Here are results for two molecules from patent EP2599789A1, “Marker and method for diagnosing diarrhea syndrome” (Bergen Teknologioverføring AS, priority 2011, dated 2013).

Where “and” joins values, the source holds several entries; their conditions need not be identical. Identical values can stand only once. Entries after “also recorded” stand apart in the source; their conditions may differ.

The subject of data set [1] is familial diarrhea syndrome patients. Put plainly: Metformin treatment trial (II), pilot study with increasing metformin doses. The data set is classed as in vivo, human. To be noted: four of five individuals. The protocol:
The dose given in the first metformin treatment trial (Table 2) was modest, and another pilot study with increasing metformin doses was started, including five individuals with high stool frequencies (22-42 per week). Patients with a history of ileus or inflammatory bowel disease were not included. Stool frequency was recorded continously for eight weeks. At day 1 of each week, blood samples were drawn for control of s-glucose, hemoglobin and creatinine. Symptoms and potential side-effects were followed closely by a weekly telephone call from the gastroenterologist.
The patients were without medication in week 1, and then the dose of metformin was increased each week as shown by the horizontal bars, starting at the beginning of week 2 and stopping by the end of week 5. Patient identifiers are listed in bold red letters in the panels.

Data set [2] shares this test system. As to the kind of experiment: Metformin treatment trial (I), pilot study in patients. The data set is classed as in vivo, human. How it is done:
A pilot study (I) with metformin was performed in six individuals from branch A, with a low peroral dose of 500 mg twice daily. The trial lasted 10 weeks, and the patients registered number of stools (and texture) during week 1, 5 and 10. The first week was without treatment and the patients received 500 mg x 2 during weeks 2- 5. Weeks 6 - 10 were without treatment. […] Number of stools per week was reduced by 40% in two patients with high stool frequency (35-36 per week). Three patients reported that stools were firmer during treatment.

For data set [3], the target named is mutant guanylate cyclase C GC-C S840I (p.Ser840Ile), transiently expressed in HEK293T cells (human). As to the kind of experiment: cell-based or functional assay.
[4] abbreviates: peroral 500 mg twice daily during weeks 2-5.

Turning to `CN(C)C(=N)NC(=N)N` [metformin, 1,1-dimethylbiguanide], in data set [1] (weeks 2-5), the “dose-response effect on number of stools” value was “clear dose-response effect; also recorded: significant dose-response effect” and the “reduction in weekly average stools/day” value was 30-40%. Also, the “maximal reduction of number of stools” value in data set [1] (weeks 2-5 (Fig. 4)) was 30-40%. Besides, in data set [2] (setting [4]), the Side effects entry was “Intermittent nausea and None (4×) and Increased bloating”; the “Week 5 Stool firmness” value is given as “Increased”. For the same molecule, the “Week 5 Stools per week” value in data set [2] (peroral 500 mg twice daily during weeks 2-5, week 1 (baseline) and weeks 6-10 without treatment) is 13 (2×) and 18 and 20 (2×) and 22. Further, the “stools during treatment (patient-reported firmness)” value in data set [2] (three of six patients, 500 mg twice daily) is given as “firmer”. The “Number of stools per week was reduced by” value in data set [2] (two patients with high stool frequency (35-36 per week), 500 mg twice daily) turned out to be 40%.
In data set [3], “uroguanylin peptide (from UniProt Q16661 97-112)” displayed an EC50 of uroguanylin for cGMP production, relative to the WT receptor (fold lower than WT) of 6.
